Measurements taken from article PMC3456924, “Single-dose pharmacokinetic and toxicity analysis of pyrrole–imidazole polyamides in mice” (Cancer Chemotherapy and Pharmacology, 2012).
“Also recorded” adds a separate entry of the source. Read-outs that look alike come from different tables or passages of the source.

What was measured:
[1] = tested on: androgen receptor (AR) signaling; PSA mRNA in LNCaP prostate cancer cells; conditions: cited from earlier work
[2] = Urinary and fecal excretion after a single IV injection; format: in vivo, BALB/C mice
Protocol: (§1) Pyrrole–imidazole polyamide pharmacokinetic studies were performed in 10- to 12-week-old female BALB/C mice (Charles River). Polyamides were solubilized in PBS (1) or PBS/DMSO (2) and administered via intravenous (IV) tail vein injection at concentrations of 7.5 and 5 mg/kg, respectively. For each experiment, groups of 3 animals were euthanized at 0.083, 0.25, 0.5, 1, 2, 4, 8, and 24 h after injection. Animals designated for the 4, 8, and 24 h time points were housed in metabolic cages for collection of urine and feces as described below. All animals used in the pharmacokinetic experiments were performed under an approved protocol at the City of Hope.
Urine and fecal samples were collected using metabolic cages (Ancare, Techniplast Metabolic Rack, 12 cages by Nalgene). Urine samples were collected at 3 time points over 24 h, and fecal samples were collected at 8 and 24 h time points. […]
Plasma pharmacokinetic parameters were derived from polyamide concentration profiles using both non-compartmental and compartmental methods. […] Additional plasma pharmacokinetic parameters determined from the compartmental analysis include the alpha and beta half-lives (t 1/2) and the apparent volume of distribution (V d). […] Urinary and fecal excretion data were expressed as the cumulative percentage of the administered dose.

[3] = Tissue distribution (liver, kidney, lung) after a single IV injection; format: in vivo, BALB/C mice; conditions: for Tmax / concentration at 24 h: female, BALB/C, mouse; for concentration at 24 h: experiment endpoint (24 h), read-out: concentration remaining in the liver at the experiment endpoint; for AUC (AUC0–24h) kidney / C max kidney / AUC (AUC0–24h) liver / C max liver / AUC (AUC0–24h) lung / C max lung: 7.5 mg/kg (1), 5 mg/kg (2); for concentration in the lung maintained over the entire time course: lowest level over 24 h
Protocol: as §1
Distribution of polyamides 1 and 2 was determined in the liver, kidneys, and lungs. The organs were harvested post-euthanasia and prepared via similar processes. A piece of the mouse organ was weighed and mixed with distilled water (3 μL/mg tissue). The tissue was then homogenized by pulsing three times on a TissueLyser for 2 min each at 30 Hz. Next, 30 μL of the tissue homogenate was mixed with 20 μL of 50 % MeOH and 50 % aqueous 1 % HOAc. The mixture was then vortex mixed with 0.12 mL 0.5 % HOAc in MeOH/ACN (2:8) and 20 μL of 6.0 μg/mL INS in MeOH/1 % aqueous HOAc (1:1) for 10 min and centrifuged at the highest setting for an additional 10 min. Samples treated with polyamide 1 were then diluted with 50 % MeOH/ACN (4:6) and 50 % aqueous 1 % HOAc. Samples treated with polyamide 2 were diluted with 50 % MeOH/ACN (4:6) and 50 % aqueous 3 % FA.
Plasma pharmacokinetic parameters were derived from polyamide concentration profiles using both non-compartmental and compartmental methods. Non-compartmental analysis was performed according to statistical moment theory and the rule of linear trapezoids, while compartmental analysis was performed in ADAPT II [24]. Pharmacokinetic parameters estimated from the non-compartmental analysis include the maximum concentration (C max), the terminal elimination half-life (t 1/2), the mean residence time (MRT), the area under the concentration curve (AUC0–24h), the AUC extrapolated to infinity (AUC0–∞), and the clearance (CL). Additional plasma pharmacokinetic parameters determined from the compartmental analysis include the alpha and beta half-lives (t 1/2) and the apparent volume of distribution (V d). Tissue pharmacokinetic parameters were determined non-compartmentally and included the C max and AUC0–24h. Urinary and fecal excretion data were expressed as the cumulative percentage of the administered dose.

Aqueous solubility = format: physicochemical; conditions: 2 requires a polar aprotic cosolvent like DMSO for administration
[4] = parameters: method as in PMID 19413319; conditions: previous ADMET study; cited from earlier work
[5] = tested on: 5′-WGWWCW-3′ sequence (androgen response element DNA); parameters: method as in PMID 18459783, PMID 22080545, PMID 17566103; conditions: cited from earlier work

Structure (SMILES)	concentration at 24 h ([3]; liver, single IV)	AUC (AUC0–24h) kidney ([3]; kidney, single IV)	C max kidney ([3]; kidney, single IV)	AUC (AUC0–24h) liver ([3]; liver, single IV)	C max liver ([3]; liver, single IV)	concentration in the lung maintained over the entire time course ([3]; lung, single IV)	AUC (AUC0–24h) lung ([3]; lung, single IV)	C max lung ([3]; lung, single IV)	other results
CN(CCCNC(=O)c1cccc(C(=O)O)c1)CCCNC(=O)c1cc(NC(=O)c2cc(NC(=O)c3cc(NC(=O)c4nc(NC(=O)[C@H](N)CCNC(=O)c5cc(NC(=O)c6cc(NC(=O)c7cc(NC(=O)c8nccn8C)cn7C)cn6C)cn5C)cn4C)cn3C)cn2C)cn1C [Polyamide 1]	4800 ± 300 ng/g	299.2 µg·h/g	27.0 ± 2.9 µg/g	157.7 µg·h/g	11.7 ± 1.3 µg/g	above 2.8 ± 0.2 μg/g	130.6 µg·h/g	16.4 ± 1.4 µg/g	most active concentration for inhibition of DHT-induced genes ([1]; LNCaP cells co-treated with DHT): 7.4 µg/mL; cumulative urinary excretion ([2]; nearly complete by 4 h, single IV 7.5 mg/kg): 5.7 ± 2.9 % of the administered dose; Tmax ([3]; kidney, single IV, read-out: time of maximum concentration in kidney postinjection (converted)): 5 min; Tmax ([3]; liver, single IV, read-out: time of maximum concentration in liver postinjection (converted)): 5 min; Tmax ([3]; lung, single IV, read-out: time of peak concentration in lung following injection (converted)): 15 min
CC(=O)N[C@@H](CNC(=O)c1cc(NC(=O)c2cc(NC(=O)c3cc(NC(=O)c4nccn4C)cn3C)cn2C)cn1C)CC(=O)Nc1cn(C)c(C(=O)Nc2cc(C(=O)Nc3cc(C(=O)Nc4cc(C(=O)NCCCN(C)CCCNC(=O)c5cccc(C(=O)O)c5)n(C)c4)n(C)c3)n(C)c2)n1 [Polyamide 2]	17400 ± 8100 ng/g	424.7 µg·h/g	35.1 ± 2.8 µg/g	301.3 µg·h/g	43.8 ± 0.7 µg/g	> 21.8 ± 7.6 µg/g	523.5 µg·h/g	256 ± 93.1 µg/g	solubility in aqueous solutions (Aqueous solubility): less soluble than 1; also recorded: relatively poor aqueous solubility; activity relative to polyamide 1 (AR-driven gene / PSA mRNA downregulation) ([1]; cell culture): tenfold increase; also recorded: equivalent activity to 1 at tenfold less concentration; liver microsomal degradation [4]: resistant to liver microsomal degradation; DNA-binding ability relative to polyamide 1 [5]: without significant changes to its DNA-binding ability; cumulative urinary excretion at 24 h ([2]; 24 h, single IV 5 mg/kg): 46.0 ± 15.2 % of the administered dose; time of maximum concentration in kidney postinjection ([3]; kidney, single IV): 5 min; time of maximum concentration in liver postinjection ([3]; liver, single IV): 5 min; lung C max of polyamide 2 relative to compound 1 ([3]; lung, initial distribution): greater than 15 fold; time of peak concentration in lung following injection ([3]; lung, single IV): 15 min
